# Results reported in patent US9145415B2, “Nitrogen-containing heterocyclic compound or salt thereof” (FUJIFILM Corporation, priority 2012, dated 2015).
# Read-outs that look alike come from different tables or passages of the source.
# Key:
# Molm-13 cells = test: Leukemia cell proliferation inhibition test (ATPlite), Molm-13; type: cell-based; settings: read-out: MOLM13 cell proliferation inhibition effect
# Procedure: (§1) A leukemia cell proliferation inhibition test was performed for the compounds of the present invention by using the leukemia cell strains MV4-11 (ATCC Number, CRL-9591) and Molm-13 (DSMZ Number, ACC554).
# (§2) The leukemia cell proliferation inhibition test was performed by the method described below.
# (§3) For the purpose of measuring proliferation inhibition attained with a compound, the total cell count was quantified on the basis of the total cellular ATP concentration using the ATPlite (PerkinElmer) reagent utilizing firefly luciferase. The Molm-13 or MV4-11 cells were added to the RPMI medium containing penicillin and streptomycin (penn/strep) and 10% FBS at a density of 2×10^5 cells/ml, and 50 μL (10,000 cells) of the cell suspension was inoculated to each well of a 96-well plate (Corning).
# (§4) A serially diluted solution of a compound or 0.1% DMSO (solvent control) in a volume of 50 μL was added to the cells, and then the cells were cultured for 72 hours under the standard cell proliferation conditions (37° C., 5% CO2) to allow proliferation of the cells. In order to measure the proliferation of the total cells, equal volume of the ATPlite reaction mixture was added to each well in accordance with the instructions attached to ATPlite, and then luminescence count of the well was measured (relative light unit, RLU).
# (§5) The RLU signal observed with the DMSO solvent control after 72 hours of the culture was defined as a signal indicating 0% inhibition, and the GI50 value for the proliferation inhibition corresponds to a concentration of a compound that provides 50% inhibition based on the proliferation of the total cells contained in the DMSO solvent control. Each data point was obtained from samples in duplicate. The GI50 values were calculated by the non-linear regression fitting (Fit Model (205)) according to a sigmoid dose-reaction equation using the XLfit software.
# [1] = target: T1, human FLT3 protein (FLT3 (WT)) (Homo sapiens, UniProt P36888); test: FLT3 inhibition test (FLT3 enzyme inhibition, time-resolved fluorescence of substrate peptide phosphorylation); type: biochemical; settings: read-out: FLT3 (WT) enzyme inhibition activity
# T1 construct: human FLT3 protein (intracellular region, 564 to 993 aa); GST; purchased Carna Biosciences; host or cells: baculovirus expression system
# T1 sequence (P36888 564-993): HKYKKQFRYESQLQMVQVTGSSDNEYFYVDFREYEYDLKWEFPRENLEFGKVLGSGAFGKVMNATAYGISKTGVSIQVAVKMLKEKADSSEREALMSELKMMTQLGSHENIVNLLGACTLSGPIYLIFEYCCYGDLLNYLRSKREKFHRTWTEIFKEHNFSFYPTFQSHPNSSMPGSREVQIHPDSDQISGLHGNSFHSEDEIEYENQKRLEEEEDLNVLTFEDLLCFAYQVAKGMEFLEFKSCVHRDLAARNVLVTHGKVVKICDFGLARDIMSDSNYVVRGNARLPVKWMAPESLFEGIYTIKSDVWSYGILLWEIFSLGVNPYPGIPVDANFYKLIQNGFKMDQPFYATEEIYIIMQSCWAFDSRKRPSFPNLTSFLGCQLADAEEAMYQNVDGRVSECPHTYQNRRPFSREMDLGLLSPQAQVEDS
# Procedure: The FLT3 inhibition test was performed for the compounds of the present invention by the method described below.
# A reaction mixture in a volume of 9 μL containing the FLT3 protein and a test compound of a predetermined concentration (1.2 μg of FLT3, 100 mM HEPES, 10 mM MgCl2, 25 mM NaCl, 0.01% BSA, 1 mM DTT, pH 7.5) was left standing at 25° C. for 15 minutes. […] (Toray Industries), and 3 μL (final concentration 50 μM) of ATP (Sigma-Aldrich) were added to the reaction mixture, and the mixture was shaken for 2 minutes, and then further left standing at 25° C. for 30 minutes to allow the enzymatic reaction.
# MV4-11 cells = test: Leukemia cell proliferation inhibition test (ATPlite), MV4-11; type: cell-based; settings: read-out: MV4-11 cell proliferation inhibition effect
# Procedure: as §1, §2, §3, §4, §5
# [2] = Homo sapiens, MOLM-13, 72 h, Molm-13, 72 hours culture, ATPlite, GI50 per method
# [3] = GST-fused human FLT3 (564 to 993 aa), ATP 50 μM
# [4] = Homo sapiens, MV4-11, 72 h, MV4-11, 72 hours culture, ATPlite, GI50 per method
# [5] = Homo sapiens, MOLM-13, MOLM13 cell
# [6] = Homo sapiens, MV4-11, MV4-11 cell
IC50 (Molm-13 cells; [2]) [nM],"IC50 [1, 3] [nM]",IC50 (MV4-11 cells; [4]) [nM],IC50 (Molm-13 cells; [5]) [nM],IC50 ([1]; FLT3 (WT)) [nM],IC50 (MV4-11 cells; [6]) [nM],"IC50 (Molm-13 cells; Molm-13, 72 hours culture, ATPlite, GI50 per method) [nM]","IC50 (MV4-11 cells; MV4-11, 72 hours culture, ATPlite, GI50 per method) [nM]",Structure (SMILES)
< 10,< 10,< 10,–,–,–,–,–,COc1ccc(Nc2nc(Nc3ccc(F)nc3)ncc2C#CCCCNC(=O)[C@H](C)N(C)C(=O)/C=C/CN(C)C)cc1 [Compound 7-22]
–,–,–,< 10,< 10,< 10,–,–,CCCNc1ncc(C#CCCCNC(=O)[C@H](C)N(C)C(=O)/C=C/CN(C)C)c(Nc2ccc(OC)cc2)n1 [Compound 21-38]
10 to 100,10 to 100,10 to 100,–,–,–,–,–,CCCNc1nc(Nc2cnc(N3CCOCC3)c(F)c2)ncc1C#CCCCNC(=O)[C@H](C)N(C)C(=O)/C=C/CN(C)C [Compound 21-8]
10 to 100,< 10,< 10,–,–,–,–,–,C[C@@H](C(=O)NCCCC#Cc1cnc(Nc2cccc(F)c2)nc1Nc1ccc(C#N)cc1)N(C)C(=O)/C=C/CN(C)C [Compound 7-14]
< 10,< 10,< 10,–,–,–,–,–,CCCNc1nc(Nc2cccc(F)c2)ncc1C#CCCCNC(=O)[C@@H]1C[C@H](F)CN1C(=O)/C=C/CN(C)C [Compound 7-49]
< 10,< 10,< 10,–,–,–,–,–,CCCNc1nc(Nc2ccc(C#N)cc2)ncc1C#CCCCNC(=O)[C@@H]1C[C@H](O)CN1C(=O)/C=C/CN(C)C [Compound 7-69]
10 to 100,< 10,10 to 100,–,–,–,–,–,C[C@@H](C(=O)NCCCC#Cc1cnc(Nc2ccc(F)nc2)nc1N1CCCC1)N(C)C(=O)/C=C/CN(C)C [Compound 11-8]
10 to 100,< 10,< 10,–,–,–,–,–,CCCNc1nc(NC(=O)Nc2ccncc2)ncc1C(=O)Nc1cccc(NC(=O)[C@H](C)N(C)C(=O)/C=C/CN(C)C)c1 [Compound 6-14]
< 10,< 10,< 10,–,–,–,–,–,C=CC(=O)N(C)CC(=O)Nc1cccc(NC(=O)c2cnc(NCCc3ccncc3)nc2NCCC)c1 [Compound 1-3]
< 10,< 10,< 10,–,–,–,–,–,CNc1nc(Nc2ccc3cnn(C)c3c2)ncc1C#CCCCNC(=O)[C@H](C)N(C)C(=O)/C=C/CN(C)C [Compound 10-56]
< 10,< 10,< 10,–,–,–,–,–,CCNc1nc(Nc2cccc(F)c2)ncc1C#C[C@@H]1CCC[C@H](NC(=O)[C@H](C)N(C)C(=O)/C=C/CN(C)C)C1 [Compound 21-27]
–,–,–,< 10,< 10,< 10,–,–,"CCCNc1nc(Nc2cnc3c(cnn3CCOC)c2)ncc1C#CCCCNC(=O)[C@@H]1CCCN1C(=O)/C=C/CN(C)C [Compound 22-44, (S,E)-1-(4-(Dimethylamino)-2-butenoyl)-N-(5-(2-((1-(2-methoxyethyl)-1H-pyrazolo[3,4-b]pyridin-5-yl)amino)-4-(propylamino)pyrimidin-5-yl)-4-pentyn-1-yl)pyrrolidine-2-carboxamide]"
10 to 100,10 to 100,10 to 100,–,–,–,–,–,CCCNc1nc(Nc2cccc(F)c2)ncc1C#CCCCNC(=O)[C@H]1CCCN1C(=O)/C=C/CN(C)C [Compound 7-94]
< 10,< 10,< 10,–,–,–,–,–,"CCNc1nc(Nc2ccc3[nH]ncc3c2)ncc1C#CCCCNC(=O)[C@@H]1CCCN1C(=O)/C=C/CN(C)C [Compound 10-67, (S,E)-N-(5-(2-((1H-Indazol-5-yl)amino)-4-(ethylamino)pyrimidin-5-yl)-4-pentyn-1-yl)-1-(4-(dimethylamino)-2-butenoyl)pyrrolidine-2-carboxamide]"
–,–,–,< 10,< 10,< 10,–,–,CCCNc1nc(Nc2cnc3c(c2)c(OC)nn3C)ncc1C#CCCCNC(=O)[C@@H]1CCCN1C(=O)/C=C/CN(C)C [Compound 22-47]
< 10,< 10,< 10,–,–,–,–,–,"C[C@@H](C(=O)N[C@H]1C[C@@H](C#Cc2cnc(Nc3ccc(C#N)cc3)nc2NC2CC2)C1)N(C)C(=O)/C=C/CN(C)C (relative stereo) [Compound 15-8, (E)-N—((S)-1-(((1S*,3R*)-3-((2-((4-Cyanophenyl)amino)-4-(cyclopropylamino)pyrimidin-5-yl)ethynyl)cyclobutyl)amino)-1-oxopropan-2-yl)-4-(dimethylamino)-N-methyl-2-butenamide]"
< 10,< 10,< 10,–,–,–,–,–,"CCCNc1nc(Nc2ccc(OC)c(F)c2)ncc1C#CCCCNC(=O)[C@H](C)N(C)C(=O)/C=C/CN(C)C [Compound 7-20, (S,E)-4-(Dimethylamino)-N-(1-((5-(2-((3-fluoro-4-methoxyphenyl)amino)-4-(propylamino)pyrimidin-5-yl)-4-pentyn-1-yl)amino)-1-oxopropan-2-yl)-N-methyl-2-butenamide]"
10 to 100,< 10,10 to 100,–,–,–,–,–,"CCCNc1nc(Nc2cccc(F)c2)ncc1C#C[C@H]1CCCC(NC(=O)[C@H](C)N(C)C(=O)/C=C/CN(C)C)C1 (stereo in doubt) [Compound 13-2, (E)-4-(dimethylamino)-N—((S)-1-(((1R,3S)-3-((2-((3-fluorophenyl)amino)-4-(propylamino)pyrimidin-5-yl)ethynyl)cyclohexyl)amino)-1-oxopropan-2-yl)-N-methyl-2-butenamide]"
–,–,–,< 10,< 10,< 10,–,–,CNc1ncc(C#CCCCNC(=O)[C@H](C)N(C)C(=O)/C=C/CN(C)C)c(Nc2ccc(OC)nc2)n1 [Compound 22-23]
–,–,–,< 10,< 10,< 10,–,–,CCCNc1nc(Nc2ccc(F)cc2)ncc1C#C[C@@H]1CCC[C@H](NC(=O)[C@H](C)N(C)C(=O)/C=C/CN(C)C)C1 [Compound 21-40]
10 to 100,10 to 100,10 to 100,–,–,–,–,–,CCCNc1nc(Nc2nnc(C)s2)ncc1C#CCCCNC(=O)[C@H](C)N(C)C(=O)/C=C/CN(C)C [Compound 9-40]
10 to 100,10 to 100,10 to 100,–,–,–,–,–,CCCNc1nc(Nc2cnc(C)c(C)c2)ncc1C#CCCCNC(=O)[C@H](C)N(C)C(=O)/C=C/CN(C)C [Compound 21-18]
< 10,< 10,< 10,–,–,–,–,–,CCOc1nc(Nc2cccc(F)c2)ncc1C#C[C@@H]1CCC[C@H](NC(=O)[C@H](C)N(C)C(=O)/C=C/CN(C)C)C1 [Compound 21-19]
–,10 to 100,–,–,–,–,100 to 1000,100 to 1000,CCCNc1nc(Nc2cccc(F)c2)ncc1C#CCCCNC(=O)[C@@H]1CCCN1C(=O)/C=C/CN(C)C [Compound 8-15]
10 to 100,< 10,10 to 100,–,–,–,–,–,CCCNc1nc(Nc2ccc(C(N)=O)cc2)ncc1C(=O)NCCCNC(=O)CN(C)C(=O)/C=C/CN(C)C [Compound 5-5]
10 to 100,< 10,< 10,–,–,–,–,–,"COCCCNc1nc(Nc2cccc(F)c2)ncc1C#CCCCNC(=O)[C@H](C)N(C)C(=O)/C=C/CN(C)C [Compound 10-1, (S,E)-4-(dimethylamino)-N-(1-((5-(2-((3-fluorophenyl)amino)-4-((3-methoxypropyl)amino)pyrimidin-5-yl)-4-pentyn-1-yl)amino)-1-oxopropan-2-yl)-N-methyl-2-butenamide]"
< 10,< 10,< 10,–,–,–,–,–,CNc1nc(Nc2ccc(F)cc2)ncc1C#CCCCNC(=O)[C@@H]1C[C@H](OC)CN1C(=O)/C=C/CN(C)C [Compound 7-82]
